Measured values from ChEMBL document CHEMBL5046276 (J Med Chem, 2022).

What was measured:
[1] = test system: Plasmodium falciparum; test: Antimalarial activity against asexual blood stage chloroquine-resistant Plasmodium falciparum Dd2 assessed as parasite growth inhibition incubated for 72 hrs by SYBR Green I staining based fluorescence analysis; type: functional, organism-based; conditions: Dd2, 72 h
[2] = test system: Plasmodium falciparum; test: Antimalarial activity against asexual blood stage wild-type Plasmodium falciparum 3D7 assessed as parasite growth inhibition incubated for 72 hrs by SYBR Green I staining based fluorescence analysis; type: functional, organism-based; conditions: 3D7, 72 h
[3] = Cytotoxicity against human HepG2 cells incubated for 72 hrs by CCK-8 assay
[4] = Selectivity index, ratio of IC50 for cytotoxicity against HEK293T cells to IC50 for antimalarial activity against asexual blood stage wild-type Plasmodium falciparum 3D7; type: toxicity, cell-based; conditions: human, read-out: Ratio IC50
[5] = Selectivity index, ratio of IC50 for cytotoxicity against human HepG2 cells to IC50 for antimalarial activity against asexual blood stage wild-type Plasmodium falciparum 3D7; type: toxicity, cell-based; conditions: read-out: Ratio IC50
[6] = Cytotoxicity against HEK293T cells incubated for 72 hrs by CCK-8 assay; conditions: human

SMILES | IC50 [1] | IC50 [2] | IC50 at 72 h [3] | selectivity ratio [4] | selectivity ratio [5] | IC50 at 72 h [6]
Cn1cc(CN2CC3(CCN(c4ncc(C(=O)NO)cn4)C3)C2)c2ccccc21 | 4.54 nM | 4.59 nM | 720 nM | 331 | 157 | 1520 nM
O=C(NO)c1cnc(N2CCC3(CN(Cc4ccccc4)C3)C2)nc1 | 66.9 nM | 25.5 nM | 420 nM | 78 | 16 | 1980 nM
Cn1cc(CN2CC3(CCN(c4ncc(C(=O)NO)cn4)C3)C2)c2ccncc21 | 9.59 nM | 4.57 nM | > 20000 nM | > 1370 | > 1370 | > 20000 nM
O=C(NO)c1cnc(N2CCC3(CN(CC4CCCCC4)C3)C2)nc1 | 19 nM | 22.2 nM | 1030 nM | 160 | 46 | 3560 nM
O=C(NO)c1cnc(N2CCC3(CN(Cc4cc5ccccc5s4)C3)C2)nc1 | 8.57 nM | 5.78 nM | 3610 nM | 794 | 625 | 4590 nM
O=C(NO)c1cnc(N2CCC3(CN(Cc4cnc5ccccn45)C3)C2)nc1 | 8.5 nM | 12.2 nM | 20000 nM | 195 | > 1640 | 2370 nM
O=C(NO)c1cnc(N2CCC3(CN(Cc4ccco4)C3)C2)nc1 | 116 nM | 76.2 nM | 10900 nM | > 263 | 144 | 20000 nM
O=C(NO)c1cnc(N2CCC3(CN(Cc4cccc5cccnc45)C3)C2)nc1 | 16.2 nM | 13.2 nM | 2660 nM | 423 | 202 | 5580 nM
O=C(NO)c1cnc(N2CCC3(CN(Cc4cccc5ccccc45)C3)C2)nc1 | 4.38 nM | 4.46 nM | > 770 nM | 605 | > 173 | 2700 nM
O=C(NO)c1cnc(N2CCC3(CN(Cc4cccnc4)C3)C2)nc1 | 2230 nM | 47 nM | 11400 nM | > 426 | 243 | > 20000 nM
O=C(NO)c1cnc(N2CCC3(CN(Cc4cccc5ccncc45)C3)C2)nc1 | 5.84 nM | 6.13 nM | 1840 nM | 152 | 300 | 930 nM
O=C(NO)c1cnc(N2CCC3(CN(Cc4ccoc4)C3)C2)nc1 | 40.1 nM | 37.6 nM | 6030 nM | 431 | 160 | 16200 nM
Cn1cc(CN2CC3(CCN(c4ncc(C(=O)NO)cn4)C3)C2)c2cnccc21 | 14.2 nM | 22 nM | > 20000 nM | > 908 | > 908 | > 20000 nM
O=C(NO)c1cnc(N2CCC3(CN(Cc4ccc5ccccc5c4)C3)C2)nc1 | 13.2 nM | 9.89 nM | 2130 nM | 442 | 215 | 4370 nM
O=C(NO)c1cnc(N2CCC3(CN(CC4CCCC4)C3)C2)nc1 | 18.9 nM |  | 1060 nM |  | 64 | 
Cn1cc(CN2CC3(CCN(c4ncc(C(=O)NO)cn4)C3)C2)c2cccnc21 | 7.83 nM | 10.4 nM | > 12200 nM | 594 | > 1170 | 6170 nM
O=C(NO)c1cnc(N2CCC3(CN(Cc4ccc5ncccc5c4)C3)C2)nc1 | 11.9 nM | 17.1 nM | 1540 nM | 102 | 90 | 1740 nM
O=C(NO)c1cnc(N2CCC3(CN(Cc4cccs4)C3)C2)nc1 | 59.1 nM | 15.2 nM | 2510 nM | > 324 | 165 | > 4930 nM
Cc1ccc2c(CN3CC4(CCN(c5ncc(C(=O)NO)cn5)C4)C3)cn(C)c2c1 | 3.25 nM | 4.45 nM | 500 nM | 247 | 112 | 1100 nM
Cn1nc(CN2CC3(CCN(c4ncc(C(=O)NO)cn4)C3)C2)c2ccccc21 | 12.7 nM | 9.79 nM | 2130 nM | 767 | 218 | 7310 nM
O=C(NO)c1cnc(N2CCC3(CN(Cc4ccccn4)C3)C2)nc1 | 30.8 nM | 44.6 nM | 8370 nM | > 449 | 188 | > 20000 nM
COc1ccc2c(CN3CC4(CCN(c5ncc(C(=O)NO)cn5)C4)C3)cn(C)c2c1 | 5.1 nM | 5.97 nM | 630 nM | 117 | 106 | 700 nM
O=C(NO)c1cnc(N2CCC3(CN(Cc4cncc5ccccc45)C3)C2)nc1 | 12.4 nM | 8.63 nM | 2230 nM | 934 | 258 | 8060 nM
O=C(NO)c1cnc(N2CCC3(CN(Cc4ccncc4)C3)C2)nc1 | 8420 nM | 137 nM | 20000 nM | > 146 | > 146 | > 20000 nM
O=C(NO)c1cnc(N2CCC3(CN(Cc4ccsc4)C3)C2)nc1 | 3.86 nM | 6.25 nM | 2460 nM | 739 | 394 | 4620 nM
O=C(NO)c1cnc(N2CCC3(CN(Cc4cccc5cnccc45)C3)C2)nc1 | 12.1 nM | 16.6 nM | 2210 nM | 97 | 133 | 1610 nM
O=C(NO)c1cnc(N2CCC3(CN(Cc4ccc(-c5ccccc5)cc4)C3)C2)nc1 | 43.4 nM | 22.9 nM | 3140 nM | 174 | 137 | 3990 nM
O=C(NO)c1cnc(N2CCC3(CN(Cc4c5ccccc5cc5ccccc45)C3)C2)nc1 | 5.56 nM | 9.31 nM | 31000 nM | 49 |  | 460 nM
O=C(NO)c1cnc(N2CCC3(CN(Cc4cc5ccccc5o4)C3)C2)nc1 | 5.16 nM | 7.16 nM | 3890 nM | 785 | 543 | 5620 nM
O=C(NO)c1cnc(N2CCC3(CN(Cc4csc5ccccc45)C3)C2)nc1 | 7.88 nM | 10 nM | 490 nM | 257 | 49 | 2580 nM
